Data published in patent US20120010235A1, “N-SUBSTITUTED PYRROLIDINES” (priority 2010, published 2012).
pIC50: −log10 of the molar value. Where a name gives a salt, the structure may show the parent alone.

tested on: SJSA, an osteocarcinoma cell line; test: antiproliferative activity assay (tetrazolium dye, MTT) in SJSA cells; details: cell-based MTT assay, inhibition of cell proliferation, read-out: TT IC50
Procedure: The pharmacological properties of the compounds of this invention may be confirmed by a number of pharmacological assays. The exemplified antiproliferative activity assay which follows has been carried out with the compounds according to the invention.
Cell proliferation was evaluated by the tetrazolium dye assay according to the procedure of Denizot and Lang (Denizot, F. and Lang, R. (1986) Rapid colorimetric assay for cell growth and survival. Modification to the terrazolium dye procedure giving improved sensitivity and reliability. J. Immunol. Methods 89, 271-277). The cell line used was SJSA, an osteocarcinoma cell line obtained from the American Type Cell Culture Collection (ATCC; Rockville, Md.). The cells were grown in PRMI with 10% FBS (Fetal Bovine Serum, Invitrogen).
Cells were plated at the appropriate seeding density to give logarithmic growth over the course of the assay in a 96-well tissue culture plate. Plates were incubated overnight at 37° C. in a humidified incubator with 5% CO2. The next day, test compounds were serially diluted 1:3 in the appropriate medium containing 3% DMSO. One-tenth final volume of each dilution was added […] to the plates containing cells. The same volume of 3% DMSO in medium was added to a row of control wells. Thus, the final concentration of DMSO in all wells was 0.3%. The plates were returned to the incubator, and at set time points (determined by their growth curves) plates were analyzed as follows: 3-(4,5-dimethylthiazole-2-yl)-2,5-diphenyl-2H-tetrazolium bromide (thiazolyl blue; MTT; Sigma) was added to each well to yield a final concentration of 1 mg/ml. Plates were returned to the incubator for 2.5 hours. The MTT-containing medium was removed and the resulting formazan metabolite was solubilized in 100% ethanol with shaking for 15 minutes at room temperature. Absorbances were read in a microtiter plate reader at a wavelength of 570 nm with a 650 nm reference. Percent inhibition (% INH) was calculated by subtracting the blank from all wells, then subtracting the ratio of the average absorbance of each triplicate (SAVE) by the average of the controls (CAVE) from 1.00. The final product was then multiplied by 100 (% INH=(1.00−SAVE/CAVE)×100). The concentration at which 50% inhibition (IC50) of cell proliferation is obtained was determined from the linear regression of a plot of the logarithm of the concentration versus percent inhibition.

Point of comparison: `COc1cc(C(=O)O)ccc1NC(=O)[C@H]1[C@H](c2cccc(Cl)c2F)[C@@](C#N)(c2ccc(Cl)cc2F)[C@H](CC(C)(C)C)N1C` (racemic) [Example 39, rac-4-{[(2R,3S,4R,5S)-3-(3-chloro-2-fluoro-phenyl)-4-(4-chloro-2-fluoro-phenyl)-4-cyano-5-(2,2-dimethyl-propyl)-1-methyl-pyrrolidine-2-carbonyl]-amino}-3-methoxy-benzoic acid], pIC50 7.40. Against it:
- COC(=O)c1nc(NC(=O)[C@H]2[C@H](c3cccc(Cl)c3F)[C@@](C#N)(c3ccc(Cl)cc3F)[C@H](CC(C)(C)C)N2C)n[nH]1 [Example 54, 5-{[(2R,3S,4R,5S)-3-(3-chloro-2-fluoro-phenyl)-4-(4-chloro-2-fluoro-phenyl)-4-cyano-5-(2,2-dimethyl-propyl)-1-methyl-pyrrolidine-2-carbonyl]-amino}-2H-[1,2,4]triazole-3-carboxylic acid methyl ester] — 1.28 log units lower, 6.12
- COc1cc(NC(=O)[C@H]2[C@H](c3cccc(Cl)c3F)[C@@](C#N)(c3ccc(Cl)cc3F)[C@H](CC(C)(C)C)N2CC2CC2)ccc1C(=O)O [Example 38, 4-{[(2R,3S,4R,5S)-3-(3-chloro-2-fluoro-phenyl)-4-(4-chloro-2-fluoro-phenyl)-4-cyano-1-cyclopropylmethyl-5-(2,2-dimethyl-propyl)-pyrrolidine-2-carbonyl]-amino}-2-methoxy-benzoic acid] — 0.35 log units lower, 7.05
- CN1[C@@H](CC(C)(C)C)[C@](C#N)(c2ccc(Cl)cc2F)[C@@H](c2cccc(Cl)c2F)[C@@H]1C(=O)Nc1ccn(CC(C)(C)O)n1 [Example 58, (2R,3S,4R,5S)-3-(3-chloro-2-fluoro-phenyl)-4-(4-chloro-2-fluoro-phenyl)-4-cyano-5-(2,2-dimethyl-propyl)-1-methyl-pyrrolidine-2-carboxylic acid [1-(2-hydroxy-2-methyl-propyl)-1H-pyrazol-3-yl]-amide] — 1.96 log units lower, 5.44
- CN1[C@@H](CC(C)(C)C)[C@](C#N)(c2ccc(Cl)cc2F)[C@@H](c2cccc(Cl)c2F)[C@@H]1C(=O)Nc1ncc(C(=O)O)[nH]1 [Example 55, 2-{[(2R,3S,4R,5S)-3-(3-chloro-2-fluoro-phenyl)-4-(4-chloro-2-fluoro-phenyl)-4-cyano-5-(2,2-dimethyl-propyl)-1-methyl-pyrrolidine-2-carbonyl]-amino}-3H-imidazole-4-carboxylic acid trifluoracetate salt] — 2.00 log units lower, 5.40
- COc1cc(C(=O)O)ccc1NC(=O)[C@H]1[C@H](c2cccc(Cl)c2F)[C@@](C#N)(c2ccc(Cl)cc2F)[C@H](CC(C)(C)C)N1CCCCCO (racemic) [Example 56, rac-4-{[(2R,3S,4R,5S)-3-(3-chloro-2-fluoro-phenyl)-4-(4-chloro-2-fluoro-phenyl)-4-cyano-5-(2,2-dimethyl-propyl)-1-(5-hydroxy-pentyl)-pyrrolidine-2-carbonyl]-amino}-3-methoxy-benzoic acid] — within 0.2 log units, 7.52
- CCCCN1[C@@H](CC(C)(C)C)[C@](C#N)(c2ccc(Cl)cc2F)[C@@H](c2cccc(Cl)c2F)[C@@H]1C(=O)Nc1ccc(C(=O)O)c(OC)c1 (racemic) [Example 43, 4-{[(2R,3S,4R,5S)-1-butyl-3-(3-chloro-2-fluoro-phenyl)-4-(4-chloro-2-fluoro-phenyl)-4-cyano-5-(2,2-dimethyl-propyl)-pyrrolidine-2-carbonyl]-amino}-2-methoxy-benzoic acid] — 1.46 log units lower, 5.94
- COc1cc(C(=O)O)ccc1NC(=O)[C@H]1[C@H](c2cccc(Cl)c2F)[C@@](C#N)(c2ccc(Cl)cc2F)[C@H](CC(C)(C)C)N1C [Example 31, 4-{[(2R,3S,4R,5S)-3-(3-chloro-2-fluoro-phenyl)-4-(4-chloro-2-fluoro-phenyl)-4-cyano-5-(2,2-dimethyl-propyl)-1-methyl-pyrrolidine-2-carbonyl]-amino}-3-methoxy-benzoic acid] — 0.68 log units lower, 6.72
- CN1[C@@H](CC(C)(C)C)[C@](C#N)(c2ccc(Cl)cc2F)[C@@H](c2cccc(Cl)c2F)[C@@H]1C(=O)Nc1ccc(C(=O)O)cc1 [Example 25, 4-{[(2R,3S,4R,5S)-3-(3-chloro-2-fluoro-phenyl)-4-(4-chloro-2-fluoro-phenyl)-4-cyano-5-(2,2-dimethyl-propyl)-1-methyl-pyrrolidine-2-carbonyl]-amino}-benzoic acid] — 0.99 log units lower, 6.41
- CN1[C@@H](CC(C)(C)C)[C@](C#N)(c2ccc(Cl)cc2F)[C@@H](c2cccc(Cl)c2F)[C@@H]1C(=O)Nc1ccc(C(=O)O)c(F)c1 [Example 26, 4-{[(2R,3S,4R,5S)-3-(3-chloro-2-fluoro-phenyl)-4-(4-chloro-2-fluoro-phenyl)-4-cyano-5-(2,2-dimethyl-propyl)-1-methyl-pyrrolidine-2-carbonyl]-amino}-2-fluoro-benzoic acid trifluoroacetate salt] — 0.91 log units lower, 6.49
- C=CCCCN1[C@@H](CC(C)(C)C)[C@](C#N)(c2ccc(Cl)cc2F)[C@@H](c2cccc(Cl)c2F)[C@@H]1C(=O)Nc1ccc(C(=O)O)c(OC)c1 (racemic) [Example 47, 4-{[(2R,3S,4R,5S)-3-(3-chloro-2-fluoro-phenyl)-4-(4-chloro-2-fluoro-phenyl)-4-cyano-5-(2,2-dimethyl-propyl)-1-pent-4-enyl-pyrrolidine-2-carbonyl]-amino}-2-methoxy-benzoic acid] — 1.19 log units lower, 6.21
- CN1[C@@H](CC(C)(C)C)[C@](C#N)(c2ccc(Cl)cc2F)[C@@H](c2cccc(Cl)c2F)[C@@H]1C(=O)Nc1ccc(C(C)(C)C(=O)O)cc1 [Example 27, 2-(4-{[(2R,3S,4R,5S)-3-(3-chloro-2-fluoro-phenyl)-4-(4-chloro-2-fluoro-phenyl)-4-cyano-5-(2,2-dimethyl-propyl)-1-methyl-pyrrolidine-2-carbonyl]amino}-phenyl)-2-methyl-propionic acid] — 1.69 log units lower, 5.71
- COc1cc(C(N)=O)ccc1NC(=O)[C@H]1[C@H](c2cccc(Cl)c2F)[C@@](C#N)(c2ccc(Cl)cc2F)[C@H](CC(C)(C)C)N1C (racemic) [Example 50, rac-(2R,3S,4R,5S)-3-(3-chloro-2-fluoro-phenyl)-4-(4-chloro-2-fluoro-phenyl)-4-cyano-5-(2,2-dimethyl-propyl)-1-methyl-pyrrolidine-2-carboxylic acid (4-carbamoyl-2-methoxy-phenyl)-amide] — 0.97 log units lower, 6.43
- CCN1[C@@H](CC(C)(C)C)[C@](C#N)(c2ccc(Cl)cc2F)[C@@H](c2cccc(Cl)c2F)[C@@H]1C(=O)Nc1ccc(C(=O)O)cc1 (racemic) [Example 33, 4-{[(2R,3S,4R,5S)-3-(3-chloro-2-fluoro-phenyl)-4-(4-chloro-2-fluoro-phenyl)-4-cyano-5-(2,2-dimethyl-propyl)-1-ethyl-pyrrolidine-2-carbonyl]-amino}benzoic acid] — 1.52 log units lower, 5.88
- CCN1[C@@H](CC(C)(C)C)[C@](C#N)(c2ccc(Cl)cc2F)[C@@H](c2cccc(Cl)c2F)[C@@H]1C(=O)Nc1ccc(C(=O)O)c(OC)c1 (racemic) [Example 41, 4-{[(2R,3S,4R,5S)-3-(3-chloro-2-fluoro-phenyl)-4-(4-chloro-2-fluoro-phenyl)-4-cyano-5-(2,2-dimethyl-propyl)-1-ethyl-pyrrolidine-2-carbonyl]-amino}-2-methoxy-benzoic acid] — 1.49 log units lower, 5.91
- COc1cc(NC(=O)[C@H]2[C@H](c3cccc(Cl)c3F)[C@@](C#N)(c3ccc(Cl)cc3F)[C@H](CC(C)(C)C)N2CCC(C)C)ccc1C(=O)O (racemic) [Example 45, 4-{[(2R,3S,4R,5S)-3-(3-chloro-2-fluoro-phenyl)-4-(4-chloro-2-fluoro-phenyl)-4-cyano-5-(2,2-dimethyl-propyl)-1-(3-methyl-butyl)-pyrrolidine-2-carbonyl]-amino}-2-methoxy-benzoic acid] — 1.02 log units lower, 6.38
- CCCN1[C@@H](CC(C)(C)C)[C@](C#N)(c2ccc(Cl)cc2F)[C@@H](c2cccc(Cl)c2F)[C@@H]1C(=O)Nc1ccc(C(=O)O)c(OC)c1 (racemic) [Example 49, 4-{[(2R,3S,4R,5S)-3-(3-chloro-2-fluoro-phenyl)-4-(4-chloro-2-fluoro-phenyl)-4-cyano-5-(2,2-dimethyl-propyl)-1-propyl-pyrrolidine-2-carbonyl]-amino}-2-methoxy-benzoic acid] — 1.57 log units lower, 5.83
- COc1cc(NC(=O)[C@H]2[C@H](c3cccc(Cl)c3F)[C@@](C#N)(c3ccc(Cl)cc3F)[C@H](CC(C)(C)C)N2CCC2CCCCC2)ccc1C(=O)O (racemic) [Example 48, 4-{[(2R,3S,4R,5S)-3-(3-chloro-2-fluoro-phenyl)-4-(4-chloro-2-fluoro-phenyl)-4-cyano-1-(2-cyclohexyl-ethyl)-5-(2,2-dimethyl-propyl)-pyrrolidine-2-carbonyl]-amino}-2-methoxy-benzoic acid trifluoroacetate salt] — 1.03 log units lower, 6.37
